Data on two compounds can be found in the NIST ThermoML archive (doi:10.1021/acs.jced.7b00836).

For this data set the following is noted: Liquid, Closed cell (Static) method.

Molecules are shown by their SMILES. ± gives the expanded uncertainty stated by the source.

The vapor or sublimation pressure is the equilibrium pressure above the liquid or solid. For `CCCCCC` [hexane], the “vapor or sublimation pressure” value by setting is: (288.24 K) 17 ± 4 kPa; (296.23 K) 21 ± 4 kPa.

Turning to `CCCCC` [pentane], the “vapor or sublimation pressure” value (288.25 K) was 48 ± 4 kPa and the “vapor or sublimation pressure” value (296.24 K) worked out at 66 ± 4 kPa.
